How the values were obtained:
[1] = target: T1, recombinant human plasminogen activator inhibitor-1 (PAI-1) (Homo sapiens, UniProt P05121); assay: Primary screen for the PAI-1 inhibition (chromogenic tPA activity); type: biochemical; conditions: pH 6.6; for inhibition at 10 µM: 10 μM test compound; for inhibition at 25 µM: 25 μM test compound
T1 construct: purchased Molecular Innovations, Royal Oak, Mich
Description: Test compounds are dissolved in DMSO at a final concentration of 10 mM, then diluted 100× in physiologic buffer. The inhibitory assay is initiated by the addition of the test compound (1-100 μM final concentration, maximun DMSO concentration of 0.2%) in a pH 6.6 buffer containing 140 nM recombinant human plasminogen activator inhibitor-1 (PAI-1; Molecular Innovations, Royal Oak, Mich.). Following a 1 hour incubation at room temperature, 70 nM of recombinant human tissue plasminogen activator (tPA) is added, and the combination of the test compound, PAI-1 and tPA is incubated for an additional 30 minutes. Following the second incubation, Spectrozyme-tPA (American Diagnostica, Greenwich, Conn.), a chromogenic substrate for tPA, is added and absorbance read at 405 nm at 0 and 60 minutes. Relative PAI-1 inhibition is equal to the residual tPA activity in the presence of the test compound and PAI-1. Control treatments include the complete inhibition of tPA by PAI-1 at the molar ratio employed (2:1), and the absence of any effect of the test compound on tPA alone.

human PAI-1 = human PAI-1 (Homo sapiens, UniProt P05121); assay: Assay for determining IC50 of inhibition of PAI-1 (tPA-coated plate, antibody detection); type: binding; conditions: active PAI-1 bound to tPA-coated plate; pH 7.5
Chain of human PAI-1 (P05121 24-402): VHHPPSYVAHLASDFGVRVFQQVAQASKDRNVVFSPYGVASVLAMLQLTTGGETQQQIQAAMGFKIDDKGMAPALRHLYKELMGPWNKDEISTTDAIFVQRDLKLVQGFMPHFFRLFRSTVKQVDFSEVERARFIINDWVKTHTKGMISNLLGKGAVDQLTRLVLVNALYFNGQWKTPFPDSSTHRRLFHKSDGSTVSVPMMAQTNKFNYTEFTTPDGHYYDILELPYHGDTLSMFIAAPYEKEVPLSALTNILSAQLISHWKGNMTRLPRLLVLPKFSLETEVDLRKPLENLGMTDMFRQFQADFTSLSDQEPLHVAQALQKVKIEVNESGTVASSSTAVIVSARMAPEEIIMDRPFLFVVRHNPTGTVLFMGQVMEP
Description: This assay is based upon the non-SDS dissociable interaction between tPA and active PAI-1. Assay plates are initially coated with human tPA (10 μg/ml). Test compounds of the present invention are dissolved in DMSO at 10 mM, then diluted with physiologic buffer (pH 7.5) to a final concentration of 1-50 μM. Test compounds are incubated with human PAI-1 (50 ng/ml) for 15 minutes at room temperature. The tPA-coated plate is washed with a solution of 0.05% Tween 20 and 0.1% BSA, then the plate is blocked with a solution of 3% BSA. An aliquot of the substituted pyrrole-indole/PAI-1 solution is then added to the tPA-coated plate, incubated at room temperature for 1 hour, and washed. Active PAL-1 bound to the plate is assessed by adding an aliquot of a 1:1000 dilution of the 33B8 monoclonal antibody against human PAI-1, and incubating the plate at room temperature for 1 hour (Molecular Innovations, Royal Oak, Mich.). […] The plate is incubated 45 minutes at room temperature, and color development is determined at OD405 nm. The quantitation of active PAI-1 bound to tPA at varying concentrations of the test compound is used to determine the IC50. Results are analyzed using a logarithmic best-fit equation. The assay sensitivity is 5 ng/ml of human PAI-1 as determined from a standard curve ranging from 0-100 ng/ml.

T1 sequence (P05121 24-402): as above

Row | SMILES | inhibition at 10 µM [1] [%] | inhibition at 25 µM [1] [%] | IC50 (human PAI-1) [µM]
1 | Cn1c(C(=O)N[C@@H](Cc2ccccc2)C(=O)O)c(-c2ccccc2)c2cc(-n3cccc3)ccc21 [Example 2, N-{[1-methyl-3-phenyl-5-(1H-pyrrol-1-yl)-1H-indol-2-yl]carbonyl}-L-phenylalanine] | 4 | 61 | 
2 | O=C(N[C@@H](Cc1ccccc1)C(=O)O)c1c(-c2ccccc2)c2cc(-n3cccc3)ccc2n1Cc1ccccc1 [Example 3, N-{[1-benzyl-3-phenyl-5-(1H-pyrrol-1-yl)-1H-indol-2-yl]carbonyl}-L-phenylalanine] | 15 | 52 | 
3 | CC(C)C[C@H](NC(=O)c1c(-c2ccccc2)c2cc(-n3cccc3)ccc2n1Cc1ccccc1)C(=O)O [Example 4, N-{[1-benzyl-3-phenyl-5-(1H-pyrrol-1-yl)-1H-indol-2-yl]carbonyl}-L-leucine] | 18 | 90 | 
4 | O=C(O)c1c(-c2ccccc2)c2cc(-n3cccc3)ccc2n1Cc1ccc(-c2ccccc2)cc1 [Example 7, 1-(1,1′-biphenyl-4-ylmethyl)-3-phenyl-5-(1H-pyrrol-1-yl)-1H-indole-2-carboxylic acid] | 56 | 90 | 
5 | O=C(O)c1c(-c2ccccc2)c2cc(-n3ccc4ccccc43)ccc2n1Cc1ccc(-c2ccccc2)cc1 [Example 8, 1′-(1,1′-biphenyl-4-ylmethyl)-3′-phenyl-1′H-1,5′-biindole-2′-carboxylic acid] | 60 | 79 | 
6 | O=C(O)c1[nH]c2ccc(-n3cccc3)cc2c1-c1ccccc1 [Example 9, 3-phenyl-5-(1H-pyrrol-1-yl)-1H-indole-2-carboxylic acid] | 19 | 47 | 
7 | CC(C)(C)c1ccc(-c2c(C(=O)O)n(Cc3ccccc3)c3ccc(-n4ccc5ccccc54)cc23)cc1 [Example 11, 1′-benzyl-3′-(4-tert-butylphenyl)-1′H-1,5′-biindole-2′-carboxylic acid] | 66 | 99 | 
8 | O=C(N[C@@H](Cc1ccccc1)C(=O)O)c1[nH]c2ccc(-n3cccc3)cc2c1-c1ccccc1 [Example 12, N-{[3-phenyl-5-(1H-pyrrol-1-yl)-1H-indol-2-yl]carbonyl}-L-phenylalanine] | 39 | 51 | 

More lines, now with the values ahead:

Row | inhibition at 10 µM [1] [%] | inhibition at 25 µM [1] [%] | IC50 (human PAI-1) [µM] | SMILES
9 | 12 | 69 |  | O=C(O)c1c(-c2ccccc2)c2cc(-n3cccc3)ccc2n1Cc1ccccc1 [Example 1, 1-benzyl-3-phenyl-5-(1H-pyrrol-1-yl)-1H-indole-2-carboxylic acid]
10 | 23 | 83 |  | Cc1ccc(C)n1-c1ccc2c(c1)c(-c1ccccc1)c(C(=O)O)n2Cc1ccccc1 [Example 5, 1-benzyl-5-(2,5-dimethyl-1H-pyrrol-1-yl)-3-phenyl-1H-indole-2-carboxylic acid]
11 | 76 | 79 | 12.9 | Cc1ccc(C)n1-c1ccc2c(c1)c(-c1ccccc1)c(C(=O)N[C@@H](CC(C)C)C(=O)O)n2Cc1ccccc1 [Example 6, N-{[1-benzyl-5-(2,5-dimethyl-1H-pyrrol-1-yl)-3-phenyl-1H-indol-2-yl]carbonyl}-L-leucine]
12 | 49 | 90 |  | CC(C)(C)c1ccc(-c2c(C(=O)O)n(Cc3ccccc3)c3ccc(-n4cccc4)cc23)cc1 [Example 10, 1-benzyl-3-(4-tert-butylphenyl)-5-(1H-pyrrol-1-yl)-1H-indole-2-carboxylic acid]
